Earlier results on one compound are cited in patent US7276253B2, “Stable drug form for oral administration with benzimidazole derivatives as active ingredient and process for the preparation thereof” (AstraZeneca AB, priority 1996, dated 2007).

For this series the following is noted: aqueous solution at pH values under 4.

In the case of `COc1ccc2[nH]c([S+]([O-])Cc3ncc(C)c(OC)c3C)nc2c1` (stereo not shown) [Omeprazole, 5-methoxy-2(((4-methoxy-3,5-dimethyl-2-pyridyl)methyl)-sulfinyl)-1H-benzimidazole], the half-life result is “less than ten”.
